Where two headings read alike, the source gives them in different places.
Columns and labels:
[1] = assay type: physicochemical; conditions: for purity of the samples, 24 h: after 24 hours at 70° C. in an oven; for purity of the samples, 24 h / purity of the samples, 48 h / purity of the samples, 72 h / purity of the samples, 0 h: HPLC at 285 nm; for purity of the samples, 48 h: after 48 hours at 70° C. in an oven; for purity of the samples, 72 h: after 72 hours at 70° C. in an oven; for purity of the samples, 0 h: time 0, before heating at 70° C.
Procedure: The samples of crystalline anhydrous dexlansoprazole prepared according to the method of the present invention (new method) and those made according to the method of U.S. Pat. No. 8,314,241 (present Example 4) are heated in an oven at 70° C.
After 24, 48 and 72 hours, samples are taken and analyzed by HPLC at a wavelength of 285 nm.

[2] = Thermal stability of dexlansoprazole in solution (dispersion), HPLC; assay type: physicochemical; conditions: dispersion 14 hours at 45° C., distillation at 50° C. at reduced pressure, further 14 hours at 45° C.; not present at time 0
Procedure: In order to establish the thermal stability of dexlansoprazole the dispersion of dexlansoprazole was heated for 14 hours at 45° C., then a distillation at 50° C. at reduced pressure was performed and finally the dispersion was kept for further 14 hours at 45° C.
The color of the resulting dispersion turned into a slight yellow.

[3] = listed as crystalline anhydrous dexlansoprazole prepared with the procedure of the present

## Cc1c(OCC(F)(F)F)ccnc1C[S@@+]([O-])c1nc2ccccc2[nH]1 [Method of the present invention]
[1]; 70° C. for 72 hours, Area % HPLC at 285 nm
  decrease of the concentration of crystalline anhydrous dexlansoprazole: less than 0.1%
[1]
  purity of the samples, 24 h: 99.95%
  purity of the samples, 48 h: 99.93%
  purity of the samples, 72 h: 99.93%
  purity of the samples, 0 h: 99.96%
[1]; [3]
  purity of the samples, 72 h: 99.93%
  purity of the samples, 0 h: 99.96%

## Cc1c(OCC(F)(F)F)ccnc1C[S@@+]([O-])c1nc2ccccc2[nH]1 [U.S. Pat. No. 8,314,241]
[1]; after 24 hours at 70° C.
  increase of the contents of all the impurities: more than 0.2%
[1]
  purity of the samples, 24 h: 99.28%
  purity of the samples, 48 h: 99.09%
  purity of the samples, 72 h: 98.91%
  purity of the samples, 0 h: 99.51%
[1]; after 72 hours at 70° C.
  increase of the contents of all the impurities: 0.60%

## Cc1c(OCC(F)(F)F)ccnc1C[S@@+]([O-])c1nc2ccccc2[nH]1 [dexlansoprazole]
[2]
  content of impurity of formula (I) formed: 0.03%

Source: patent publication US10370359B2, “Process for the preparation of crystalline dexlansoprazole” (DIPHARMA FRANCIS S.r.l., priority 2017, dated 2019)
